Data reported in ChEMBL document CHEMBL1127007, “Quinazolinones 2: QSAR and in vivo characterization of AT1 selective AII antagonists” (Bioorg Med Chem Lett, 1993).
Values joined by “and” are separate entries in the source; they are usually repeats but may differ in a detail not shown here. Equal values may be shown once.

Columns and labels:
[1] = target: T1, Type-1 angiotensin II receptor (Oryctolagus cuniculus, UniProt P34976); assay: Displacement of [125I]Sar1-Ile8-AII (without BSA) from type 1 Angiotensin II receptor of rabbit aorta; type: tissue-based
T1 sequence (P34976 whole entry): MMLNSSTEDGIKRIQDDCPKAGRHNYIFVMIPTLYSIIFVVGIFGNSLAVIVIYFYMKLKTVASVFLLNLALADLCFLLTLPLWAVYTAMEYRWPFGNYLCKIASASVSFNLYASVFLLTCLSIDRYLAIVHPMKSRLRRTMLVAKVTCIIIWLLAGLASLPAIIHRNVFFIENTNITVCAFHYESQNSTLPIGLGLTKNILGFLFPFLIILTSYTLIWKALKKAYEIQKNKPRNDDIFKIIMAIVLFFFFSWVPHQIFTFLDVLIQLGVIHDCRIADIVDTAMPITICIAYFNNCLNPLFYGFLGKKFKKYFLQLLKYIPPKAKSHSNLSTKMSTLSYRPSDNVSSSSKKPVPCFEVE

[2] = target: T1, Type-1 angiotensin II receptor; assay: Ability to displace [125I]Sar1-Ile8-AII from angiotensin II receptor, type 1 in rabbit aorta in presence of 0.2% bovine serum albumin (BSA) was determined in vitro; type: tissue-based
[3] = target: Angiotensin II receptor (Rattus norvegicus) (UniProt P29089+P25095+P35351); assay: Duration of action as time for pressor response to fall below 30% for a single bolus by intravenous dose; type: functional, organism-based
[4] = tested on: Rattus norvegicus; assay: Compound was evaluated in vivo for inhibition of the AII pressor response in normotensive rat at dose 1 mg/kg, iv after <0.5 hour; type: functional
[5] = target: T2, Type-2 angiotensin II receptor (Homo sapiens) (UniProt P50052); assay: In vitro antagonist activity against the Angiotensin II (type 2) receptor.; type: functional
T2 sequence (whole entry): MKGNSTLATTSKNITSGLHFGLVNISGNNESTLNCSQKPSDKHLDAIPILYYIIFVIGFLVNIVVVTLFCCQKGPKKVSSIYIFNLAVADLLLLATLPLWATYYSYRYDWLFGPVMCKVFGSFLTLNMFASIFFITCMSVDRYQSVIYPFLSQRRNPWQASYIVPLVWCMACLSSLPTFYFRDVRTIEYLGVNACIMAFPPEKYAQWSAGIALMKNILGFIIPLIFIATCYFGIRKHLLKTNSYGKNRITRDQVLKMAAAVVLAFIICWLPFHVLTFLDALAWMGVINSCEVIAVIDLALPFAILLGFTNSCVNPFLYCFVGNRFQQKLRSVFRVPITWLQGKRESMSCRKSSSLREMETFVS

[6] = tested on: Rattus norvegicus; assay: Compound was evaluated in vivo for inhibition of the AII pressor response in normotensive rat at dose 3 mg/kg, p.o. after 4.2 hour; type: functional; conditions: route oral
[7] = tested on: Rattus norvegicus; assay: Compound was evaluated in vivo for inhibition of the AII pressor response in normotensive rat at dose 1 mg/kg, iv; type: functional
[8] = tested on: Rattus norvegicus; assay: The duration of action is expressed as the time for the % inhibition of pressor response to fall below 30% for a single bolus of the drug administered perorally.; type: functional
[9] = tested on: Rattus norvegicus; assay: Compound was evaluated in vivo for inhibition of the AII pressor response in normotensive rat at dose 3 mg/kg, iv after 2.5 hour; type: functional
[10] = tested on: Rattus norvegicus; assay: Compound was evaluated in vivo for inhibition of the AII pressor response in normotensive rat at dose 1 mg/kg, iv after 1 hour; type: functional
[11] = tested on: Rattus norvegicus; assay: Compound was evaluated in vivo for inhibition of the AII pressor response in normotensive rat at dose 1 mg/kg, iv after 1.2 hour; type: functional
[12] = tested on: Rattus norvegicus; assay: Compound was evaluated in vivo for inhibition of the AII pressor response in normotensive rat at dose 1 mg/kg, p.o. after 0.2 hour; type: functional; conditions: route oral
[13] = tested on: Rattus norvegicus; assay: Compound was evaluated in vivo for inhibition of the AII pressor response in normotensive rat at dose 1 mg/kg, iv after 4.5 hour; type: functional
[14] = tested on: Rattus norvegicus; assay: Compound was evaluated in vivo for inhibition of the AII pressor response in normotensive rat at dose 3 mg/kg, p.o. after >6 hour; type: functional; conditions: route oral
[15] = tested on: Rattus norvegicus; assay: Compound was evaluated in vivo for inhibition of the AII pressor response in normotensive rat at dose 1 mg/kg, iv after 0.3 hour; type: functional
[16] = tested on: Rattus norvegicus; assay: Compound was evaluated in vivo for inhibition of the AII pressor response in normotensive rat at dose 3 mg/kg, iv after >6 hour; type: functional
[17] = tested on: Rattus norvegicus; assay: Compound was evaluated in vivo for inhibition of the AII pressor response in normotensive rat at dose 0.03 mg/kg, po; type: functional
[18] = tested on: Rattus norvegicus; assay: Compound was evaluated in vivo for inhibition of the AII pressor response in normotensive rat at dose 0.3 mg/kg, iv after 4 hour; type: functional
[19] = tested on: Rattus norvegicus; assay: Compound was evaluated in vivo for inhibition of the AII pressor response in normotensive rat at dose 1 mg/kg, iv after >6 hour; type: functional
[20] = tested on: Rattus norvegicus; assay: Compound was evaluated in vivo for inhibition of the AII pressor response in normotensive rat at dose 0.1 mg/kg, iv after 2.5 hour; type: functional
[21] = tested on: Rattus norvegicus; assay: Compound was evaluated in vivo for inhibition of the AII pressor response in normotensive rat at dose 0.03 mg/kg, iv; type: functional
[22] = tested on: Rattus norvegicus; assay: Compound was evaluated in vivo for inhibition of the AII pressor response in normotensive rat at dose 0.1 mg/kg, p.o. after >3 hour; type: functional; conditions: route oral
[23] = tested on: Rattus norvegicus; assay: Compound was evaluated in vivo for inhibition of the AII pressor response in normotensive rat at dose 0.3 mg/kg, p.o. after >3.5 hour; type: functional; conditions: route oral
[24] = tested on: Rattus norvegicus; assay: Compound was evaluated in vivo for inhibition of the AII pressor response in normotensive rat at dose 1 mg/kg, p.o. after >5 hour; type: functional; conditions: route oral
[25] = tested on: Rattus norvegicus; assay: Compound was evaluated in vivo for inhibition of the AII pressor response in normotensive rat at dose 0.3 mg/kg, p.o. after 3.5 hour; type: functional; conditions: route oral
[26] = tested on: Rattus norvegicus; assay: Compound was evaluated in vivo for inhibition of the AII pressor response in normotensive rat at dose 1 mg/kg, iv after 0.5 hour; type: functional

| Structure (SMILES) | IC50 [1] [nM] | IC50 [2] [nM] | Duration [3] | Activity [5] [nM] | further results |
| --- | --- | --- | --- | --- | --- |
| CCCCc1nc2ccc(C)cc2c(=O)n1Cc1ccc(-c2ccccc2-c2nn[nH]n2)cc1 |  |  |  | > 1000 | inhibition in vivo at 3 mg/kg [6]: 64%; inhibition in vivo at 1 mg/kg [7]: 28%; Duration [8]: 4.2 h; inhibition in vivo at 3 mg/kg [9]: 76% |
| CCCCc1nc2ccc(NC)cc2c(=O)n1Cc1ccc(-c2ccccc2-c2nn[nH]n2)cc1 |  |  | 1.2 h | > 1000 | inhibition in vivo at 1 mg/kg [11]: 94% |
| CCCCc1nc2ccc(N)cc2c(=O)n1Cc1ccc(-c2ccccc2-c2nn[nH]n2)cc1 |  |  | 4.5 h | > 1000 | inhibition in vivo at 1 mg/kg [12]: 32%; Duration [8]: 0.2 h; inhibition in vivo at 1 mg/kg [13]: 93% |
| CCCCc1nc2ccc(N(C)C(=O)OCC(C)C)cc2c(=O)n1Cc1ccc(-c2ccccc2-c2nnn[nH]2)cc1 | 1.6 | 3.4 |  |  |  |
| CCCCc1nc2ccc(NC(=O)OCC(C)C)cc2c(=O)n1Cc1ccc(-c2ccccc2-c2nnn[nH]2)cc1 | 1.6 | 6.4 |  |  |  |
| CCCCc1nc2ccc(-c3ccc(Cl)cc3)cc2c(=O)n1Cc1ccc(-c2ccccc2-c2nn[nH]n2)cc1 | 30 |  |  |  |  |
| CCCCc1nc2ccc(O)cc2c(=O)n1Cc1ccc(-c2ccccc2-c2nnn[nH]2)cc1 |  | 27 |  |  |  |
| CCCCc1nc2ccc(C(C)C)cc2c(=O)n1Cc1ccc(-c2ccccc2-c2nn[nH]n2)cc1 | 4 | 5 |  | > 1000 | inhibition in vivo at 3 mg/kg [14]: 72%; inhibition in vivo at 1 mg/kg [15]: 34%; inhibition in vivo at 3 mg/kg [16]: 90%; Duration [8]: >6 h |
| CCCCc1nc2ccc(N(C)C(=O)OCC(C)C)cc2c(=O)n1Cc1ccc(-c2ccccc2-c2nn[nH]n2)cc1 |  |  |  | > 1000 | inhibition in vivo at 0.3 mg/kg [25]: 60%; inhibition in vivo at 1 mg/kg [19]: 72%; Duration [8]: 3.5 h |
| CCCCc1nc2ccc(S(C)(=O)=O)cc2c(=O)n1Cc1ccc(-c2ccccc2-c2nn[nH]n2)cc1 | 7.6 | 3 | 0.5 h | > 1000 | inhibition in vivo at 1 mg/kg [26]: 79% |
| CCCCc1nc2ccc(NC)cc2c(=O)n1Cc1ccc(-c2ccccc2-c2nnn[nH]2)cc1 |  | 2 |  |  |  |

Further lines, with some results ahead:

| IC50 [1] [nM] | IC50 [2] [nM] | Duration [3] | Activity [5] [nM] | Structure (SMILES) | further results |
| --- | --- | --- | --- | --- | --- |
| 0.58 |  |  |  | CCCCc1nc2ccc(N(C)C(=O)N(C)C(C)C)cc2c(=O)n1Cc1ccc(-c2ccccc2-c2nnn[nH]2)cc1 |  |
|  | 5 | > 0.5 h | > 1000 | CCCCc1nc2ccc(N(C)C)cc2c(=O)n1Cc1ccc(-c2ccccc2-c2nn[nH]n2)cc1 | inhibition in vivo at 1 mg/kg [4]: 55% |
|  | 4.3 | 1 h | > 1000 | CCCCc1nc2ccc(NC(=O)OCc3ccccc3)cc2c(=O)n1Cc1ccc(-c2ccccc2-c2nn[nH]n2)cc1 | inhibition in vivo at 1 mg/kg [10]: 84% |
|  | 0.83 |  |  | CCCCc1nc2ccc(N(C)C(=O)OCc3ccccc3)cc2c(=O)n1Cc1ccc(-c2ccccc2-c2nnn[nH]2)cc1 |  |
|  | 120 |  |  | CCCCc1nc2ccc(NS(=O)(=O)C(F)(F)F)cc2c(=O)n1Cc1ccc(-c2ccccc2-c2nn[nH]n2)cc1 |  |
|  |  | > 6 h and 4 h and 2.5 h | > 1000 | CCCCc1nc2ccc(NC(=O)N(C)C(C)C)cc2c(=O)n1Cc1ccc(-c2ccccc2-c2nn[nH]n2)cc1 | inhibition in vivo at 0.03 mg/kg [17]: 16%; inhibition in vivo at 0.3 mg/kg [18]: 96%; inhibition in vivo at 1 mg/kg [19]: 94%; inhibition in vivo at 0.1 mg/kg [20]: 85%; inhibition in vivo at 0.03 mg/kg [21]: 15%; inhibition in vivo at 0.1 mg/kg [22]: 58%; inhibition in vivo at 0.3 mg/kg [23]: 80%; Duration [8]: >5 h and >3.5 h and >3 h; inhibition in vivo at 1 mg/kg [24]: 84% |
